Measured values: PubChem BioAssay (NCI)
Values joined by “and” are separate entries in the source; they are usually repeats but may differ in a detail not shown here. Equal entries are not always repeated.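 In this assay, cells in 96-well plates receive the compound at five concentrations for 48 hours. Endpoints are linearly interpolated between the surrounding concentrations. GI50: concentration for 50% inhibition of growth. Definition used: TGI = concentration required for complete inhibition of growth.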

Columns and labels:
Test in all cases: NCI tumour cell line growth inhibition, 48 h
SF-539 CNS = tested on: SF-539 CNS
SK-MEL-2 melanoma = tested on: SK-MEL-2 melanoma
MDA-MB-435 = tested on: MDA-MB-435
RXF 393 renal = tested on: RXF 393 renal
HT29 colon = tested on: HT29 colon
SK-MEL-28 melanoma = tested on: SK-MEL-28 melanoma
KM12 colon = tested on: KM12 colon
HS 578T breast = tested on: HS 578T breast
MOLT-4 leukemia = tested on: MOLT-4 leukemia
SNB-19 CNS = tested on: SNB-19 CNS
786-0 renal = tested on: 786-0 renal
CAKI-1 renal = tested on: CAKI-1 renal
SK-MEL-5 melanoma = tested on: SK-MEL-5 melanoma
K-562 leukemia = tested on: K-562 leukemia
UACC-62 melanoma = tested on: UACC-62 melanoma
MALME-3M melanoma = tested on: MALME-3M melanoma
OVCAR-8 ovarian = tested on: OVCAR-8 ovarian
NCI-H460 lung = tested on: NCI-H460 lung
HOP-62 NSCLC = tested on: HOP-62 NSCLC
OVCAR-3 ovarian = tested on: OVCAR-3 ovarian
SR leukemia = tested on: SR leukemia
HCC-2998 colon = tested on: HCC-2998 colon
NCI-H226 lung = tested on: NCI-H226 lung
SK-OV-3 ovarian = tested on: SK-OV-3 ovarian
RPMI-8226 leukemia = tested on: RPMI-8226 leukemia
A498 renal = tested on: A498 renal
SN12C renal = tested on: SN12C renal
T-47D breast = tested on: T-47D breast
ACHN renal = tested on: ACHN renal
PC-3 prostate = tested on: PC-3 prostate
HL-60(TB) leukemia = tested on: HL-60(TB) leukemia
SNB-75 CNS = tested on: SNB-75 CNS
IGROV1 ovarian = tested on: IGROV1 ovarian
NCI/ADR-RES ovarian = tested on: NCI/ADR-RES ovarian
SF-268 CNS = tested on: SF-268 CNS
M14 melanoma = tested on: M14 melanoma
MCF7 breast = tested on: MCF7 breast
DU-145 prostate = tested on: DU-145 prostate
SF-295 CNS = tested on: SF-295 CNS
UACC-257 melanoma = tested on: UACC-257 melanoma
MDA-N = tested on: MDA-N
CCRF-CEM leukemia = tested on: CCRF-CEM leukemia
SW-620 colon = tested on: SW-620 colon
A549 NSCLC = tested on: A549 NSCLC
NCI-H522 lung = tested on: NCI-H522 lung
LOX IMVI melanoma = tested on: LOX IMVI melanoma
MDA-MB-231 breast = tested on: MDA-MB-231 breast
OVCAR-5 ovarian = tested on: OVCAR-5 ovarian
UO-31 renal = tested on: UO-31 renal
HCT-15 colon = tested on: HCT-15 colon
BT-549 breast = tested on: BT-549 breast
TK-10 renal = tested on: TK-10 renal
NCI-H23 lung = tested on: NCI-H23 lung
U251 CNS = tested on: U251 CNS
EKVX NSCLC = tested on: EKVX NSCLC
OVCAR-4 ovarian = tested on: OVCAR-4 ovarian
HCT-116 colon = tested on: HCT-116 colon
HOP-92 NSCLC = tested on: HOP-92 NSCLC
COLO 205 colon = tested on: COLO 205 colon

CC(=O)OC1COC(n2c(N)c(C#N)c(C)c(C#N)c2=S)C(OC(C)=O)C1OC(C)=O (stereo unspecified)
TGI (SF-539 CNS): > 100 µM
GI50 (SK-MEL-2 melanoma): > 100 µM and 26 µM
TGI (SK-MEL-2 melanoma): > 100 µM
TGI (MDA-MB-435): > 100 µM
GI50 (RXF 393 renal): 17.4 µM and 59.8 µM
TGI (RXF 393 renal): > 100 µM
TGI (HT29 colon): > 100 µM
TGI (SK-MEL-28 melanoma): > 100 µM
TGI (KM12 colon): > 100 µM
GI50 (HS 578T breast): > 100 µM and 38.3 µM
TGI (HS 578T breast): > 100 µM
GI50 (MOLT-4 leukemia): > 100 µM and 43.2 µM
TGI (MOLT-4 leukemia): > 100 µM
GI50 (SNB-19 CNS): > 100 µM
TGI (SNB-19 CNS): > 100 µM
TGI (786-0 renal): > 100 µM
TGI (CAKI-1 renal): > 100 µM
TGI (SK-MEL-5 melanoma): > 100 µM
TGI (K-562 leukemia): > 100 µM
TGI (UACC-62 melanoma): > 100 µM
TGI (MALME-3M melanoma): > 100 µM
TGI (OVCAR-8 ovarian): > 100 µM
TGI (NCI-H460 lung): > 100 µM
TGI (HOP-62 NSCLC): > 100 µM
TGI (OVCAR-3 ovarian): > 100 µM
TGI (SR leukemia): > 100 µM
TGI (HCC-2998 colon): > 100 µM
TGI (NCI-H226 lung): > 100 µM
TGI (SK-OV-3 ovarian): > 100 µM
TGI (RPMI-8226 leukemia): > 100 µM
TGI (A498 renal): > 100 µM
TGI (SN12C renal): > 100 µM
TGI (T-47D breast): > 100 µM
TGI (ACHN renal): > 100 µM
TGI (PC-3 prostate): > 100 µM
GI50 (HL-60(TB) leukemia): > 100 µM and 36.6 µM
TGI (HL-60(TB) leukemia): > 100 µM
TGI (SNB-75 CNS): > 100 µM
TGI (IGROV1 ovarian): > 100 µM
TGI (NCI/ADR-RES ovarian): > 100 µM
TGI (SF-268 CNS): > 100 µM
TGI (M14 melanoma): > 100 µM
TGI (MCF7 breast): > 100 µM
GI50 (DU-145 prostate): > 100 µM
TGI (DU-145 prostate): > 100 µM
TGI (SF-295 CNS): > 100 µM
TGI (UACC-257 melanoma): > 100 µM
TGI (MDA-N): > 100 µM
GI50 (CCRF-CEM leukemia): > 100 µM and 32 µM
TGI (CCRF-CEM leukemia): > 100 µM
TGI (SW-620 colon): > 100 µM
TGI (A549 NSCLC): > 100 µM
TGI (NCI-H522 lung): > 100 µM
TGI (LOX IMVI melanoma): > 100 µM
TGI (MDA-MB-231 breast): > 100 µM
TGI (OVCAR-5 ovarian): > 100 µM
TGI (UO-31 renal): > 100 µM
TGI (HCT-15 colon): > 100 µM
TGI (BT-549 breast): > 100 µM
TGI (TK-10 renal): > 100 µM
TGI (NCI-H23 lung): > 100 µM

C=C(C)[C@@H]1CC[C@]2(C(=O)O)CC[C@]3(C)[C@H](CC[C@@H]4[C@@]5(C)CC[C@H](C(=O)/C=C/c6ccc(O)cc6)C(C)(C)[C@@H]5CC[C@]43C)[C@@H]12
TGI (SF-539 CNS): 20.3 µM
TGI (SK-MEL-2 melanoma): 46.8 µM
TGI (MDA-MB-435): 24.4 µM
TGI (RXF 393 renal): 65.1 µM
TGI (HT29 colon): 45.4 µM
TGI (SK-MEL-28 melanoma): 26.5 µM
TGI (KM12 colon): 18.4 µM
TGI (HS 578T breast): 36.2 µM
TGI (MOLT-4 leukemia): 51.6 µM
TGI (SNB-19 CNS): 27.7 µM
TGI (786-0 renal): > 100 µM
TGI (U251 CNS): > 100 µM
TGI (CAKI-1 renal): 9.43 µM
TGI (SK-MEL-5 melanoma): 10.4 µM
TGI (K-562 leukemia): > 100 µM
TGI (UACC-62 melanoma): 30 µM
TGI (MALME-3M melanoma): 70.1 µM
TGI (OVCAR-8 ovarian): 53.9 µM
TGI (NCI-H460 lung): 17.3 µM
TGI (HOP-62 NSCLC): 27.8 µM
TGI (OVCAR-3 ovarian): 10.3 µM
TGI (SR leukemia): > 100 µM
TGI (HCC-2998 colon): 11.4 µM
TGI (SK-OV-3 ovarian): 36.3 µM
TGI (A498 renal): 26.5 µM
TGI (SN12C renal): 10.4 µM
TGI (EKVX NSCLC): 24.4 µM
TGI (OVCAR-4 ovarian): 72.4 µM
TGI (T-47D breast): 20.7 µM
TGI (PC-3 prostate): 19 µM
TGI (HL-60(TB) leukemia): 12.7 µM
TGI (IGROV1 ovarian): 28.3 µM
TGI (NCI/ADR-RES ovarian): 29.3 µM
TGI (SF-268 CNS): 94.6 µM
TGI (M14 melanoma): 21.9 µM
TGI (MCF7 breast): 11.5 µM
TGI (DU-145 prostate): 18.1 µM
TGI (SF-295 CNS): 21.7 µM
TGI (UACC-257 melanoma): 16.5 µM
TGI (HCT-116 colon): > 100 µM
TGI (HOP-92 NSCLC): 29.2 µM
TGI (MDA-N): 18 µM
TGI (CCRF-CEM leukemia): 23.6 µM
TGI (SW-620 colon): 15.2 µM
TGI (A549 NSCLC): > 100 µM
TGI (NCI-H522 lung): 39.5 µM
TGI (LOX IMVI melanoma): 22.4 µM
TGI (MDA-MB-231 breast): 23 µM
TGI (OVCAR-5 ovarian): 23.7 µM
TGI (UO-31 renal): 18.4 µM
TGI (COLO 205 colon): 9.53 µM
TGI (HCT-15 colon): 17.3 µM
TGI (BT-549 breast): 38.5 µM
TGI (TK-10 renal): 20.9 µM
TGI (NCI-H23 lung): 20.8 µM
